Source: the supplement of paper PMC10307832

Legend:
Test in all cases: relative viability (nuclei count vs DMSO), 5 days (fraction); higher = more cells survive
Zosuquidar + Luminespib = compound: O[C@@H](COc1cccc2ncccc12)CN1CCN([C@@H]2c3ccccc3[C@@H]3[C@H](c4ccccc42)C3(F)F)CC1 [Zosuquidar] + CCNC(=O)c1noc(-c2cc(C(C)C)c(O)cc2O)c1-c1ccc(CN2CCOCC2)cc1 [Luminespib] (partner 0.01 µM)
In short: (§1)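 Lung cancer cell lines in 1536-well plates got either a single drug or a fixed anchor-drug dose together with five library-drug doses (not always all listed) in √10 steps, by pin tool, on the day after seeding. Nuclei were counted after 5 days, and relative viability is the treated-to-vehicle ratio of nuclei counts. Values are medians of duplicate plates.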

Kobe2602 + Dasatinib = compound: C1=CC(=CC=C1NC(=S)NNC2=C(C=C(C=C2[N+](=O)[O-])C(F)(F)F)[N+](=O)[O-])F [Kobe2602] + Cc1nc(Nc2ncc(C(=O)Nc3c(C)cccc3Cl)s2)cc(N2CCN(CCO)CC2)n1 [Dasatinib] (partner 0.075 µM)
In short: as §1

[1] = compound: COc1cc2nccc(Oc3ccc(NC(=O)C4(C(=O)Nc5ccc(F)cc5)CC4)cc3)c2cc1OC [Cabozantinib] + CS(=O)(=O)N1CCN(Cc2cc3nc(-c4cccc5[nH]ncc45)nc(N4CCOCC4)c3s2)CC1 [Pictilisib] (partner 1 µM)
In short: as §1

Zosuquidar + Lapatinib = compound: O[C@@H](COc1cccc2ncccc12)CN1CCN([C@@H]2c3ccccc3[C@@H]3[C@H](c4ccccc42)C3(F)F)CC1 [Zosuquidar] + CS(=O)(=O)CCNCc1ccc(-c2ccc3ncnc(Nc4ccc(OCc5cccc(F)c5)c(Cl)c4)c3c2)o1 [Lapatinib] (partner 2 µM)
In short: as §1

Cell Line	relative viability (Zosuquidar + Luminespib; first compound 0.01 µM)	relative viability (Zosuquidar + Luminespib; first compound 0.03162 µM)	relative viability (Zosuquidar + Luminespib; first compound 0.1 µM)	relative viability (Zosuquidar + Luminespib; first compound 0.3162 µM)	relative viability (Zosuquidar + Luminespib; first compound 1 µM)	relative viability (Kobe2602 + Dasatinib; first compound 0.2 µM)	relative viability (Kobe2602 + Dasatinib; first compound 0.6325 µM)	relative viability (Kobe2602 + Dasatinib; first compound 2 µM)	relative viability (Kobe2602 + Dasatinib; first compound 6.325 µM)	relative viability (Kobe2602 + Dasatinib; first compound 20 µM)	relative viability ([1]; first compound 0.02 µM)	relative viability ([1]; first compound 0.06325 µM)	relative viability ([1]; first compound 0.2 µM)	relative viability ([1]; first compound 0.6325 µM)	relative viability ([1]; first compound 2 µM)	relative viability (Zosuquidar + Lapatinib; first compound 0.01 µM)	relative viability (Zosuquidar + Lapatinib; first compound 0.03162 µM)	relative viability (Zosuquidar + Lapatinib; first compound 0.1 µM)	relative viability (Zosuquidar + Lapatinib; first compound 0.3162 µM)	relative viability (Zosuquidar + Lapatinib; first compound 1 µM)
SW 900	0.172	0.171	0.181	0.198	0.172	0.463	0.836	0.586	0.537	0.898										
NCI-H358	0.334	0.356	0.441	0.347	0.413	0.176	0.167	0.209	0.172	0.186	0.318	0.35	0.386	0.387	0.373	0.475	0.415	0.366	0.55	0.492
PC-3 [JPC-3]	0.697	0.647	0.647	0.658	0.75	1.01	0.949	0.996	0.944	0.99	0.723	0.926		0.806	0.774	0.449	0.429	0.401	0.433	0.447
NCI-H1651	0.897	0.973	0.655	0.862	0.792	0.596	0.362	0.429	0.402	0.37	0.548	0.62	0.513	0.547	0.468	0.866	0.902	0.865	1.02	0.943
HCC-827	0.518	0.576	0.501	0.704	0.7	0.289	0.284	0.43	0.388	0.404	1.08	0.991		0.907	0.816	0.183	0.246	0.178	0.19	0.246
HCC-366						0.613	0.632	0.597	0.646	0.727	0.0953	0.105	0.158	0.0782	0.113	1.08	1.08	1.15	1.01	1.15
HARA	0.586		0.837	0.92	0.649	0.258	0.311	0.321	0.252	0.286	0.315	0.417	0.508	0.474	0.429	0.806	0.69	0.676	0.932	0.879
NCI-H520	0.226	0.192		0.193	0.206	0.205	0.233	0.197	0.222	0.202	0.318	0.291	0.28	0.312	0.376	0.878	0.827	0.569	0.855	0.982
NCI-H1299											0.961	0.924	0.953	0.876	0.733	0.971	0.981	0.944	1.01	0.958
SW 1573	0.281	0.287	0.287	0.275	0.355	0.473	0.655	0.58	0.483	0.243	0.483	0.573	0.543	0.411	0.449	1.09	0.985	1.08	1.4	1.01
CAL-12T	0.443	0.575	0.513	0.221	0.504	0.462	0.388	0.413	0.474	0.376	0.364	0.411	0.383		0.336	0.716	0.84		0.768	0.819
COR-L 105	0.923	0.789	0.757	0.858	0.782	0.392	0.366	0.357	0.362	0.338	0.343	0.385		0.43	0.37	0.35	0.389	0.324	0.366	0.386
NCI-H3122	0.095	0.0891	0.0947	0.0965	0.0865	0.853	0.806	0.739	0.465	1	0.512	0.622	0.579	0.77	0.769	0.997	0.906	1	1.01	1.01
NCI-H2228	0.124	0.163	0.185	0.171	0.206	0.415	0.549	0.504	0.502	0.529	0.539	0.544	0.551	0.455	0.331	1.2	0.937	0.956	1.06	1.21
RERF-LC-KJ	1.28	1.11	1.29	1.34	1.19	0.769	0.714	0.652	0.556	0.405	0.501	0.646	0.578	0.567	0.485	0.786	0.902	0.841	0.943	0.811
NCI-H441	0.355	0.244	0.403	0.286	0.326	0.66	0.606	0.71	0.699	0.621	0.459	0.512	0.49	0.581	0.404					
A549											0.572	0.57	0.502	0.514	0.379	0.958	0.935	0.984	0.977	0.94
NCI-H2342	0.753	0.591	0.605	0.644	0.845	0.285	0.323	0.367	0.303	0.333										
NCI-H1623	0.371	0.511	0.539	0.451	0.476	0.577	0.555	0.427	0.532	0.575										

Cell Line	relative viability (Zosuquidar + Luminespib; first compound 0.01 µM)	relative viability (Zosuquidar + Luminespib; first compound 0.03162 µM)	relative viability (Zosuquidar + Luminespib; first compound 0.1 µM)	relative viability (Zosuquidar + Luminespib; first compound 0.3162 µM)	relative viability (Zosuquidar + Luminespib; first compound 1 µM)	relative viability (Kobe2602 + Dasatinib; first compound 0.2 µM)	relative viability (Kobe2602 + Dasatinib; first compound 0.6325 µM)	relative viability (Kobe2602 + Dasatinib; first compound 2 µM)	relative viability (Kobe2602 + Dasatinib; first compound 6.325 µM)	relative viability (Kobe2602 + Dasatinib; first compound 20 µM)	relative viability ([1]; first compound 0.02 µM)	relative viability ([1]; first compound 0.06325 µM)	relative viability ([1]; first compound 0.2 µM)	relative viability ([1]; first compound 0.6325 µM)	relative viability ([1]; first compound 2 µM)	relative viability (Zosuquidar + Lapatinib; first compound 0.01 µM)	relative viability (Zosuquidar + Lapatinib; first compound 0.03162 µM)	relative viability (Zosuquidar + Lapatinib; first compound 0.1 µM)	relative viability (Zosuquidar + Lapatinib; first compound 0.3162 µM)	relative viability (Zosuquidar + Lapatinib; first compound 1 µM)
LCLC-97TM1	0.765	0.755	0.742	0.814	0.913	0.886	0.759	0.705	0.937	0.802		0.2	0.152	0.296	0.32	1.07	1.13		1.27	0.881
NCI-H2087	0.155		0.184	0.195	0.16	0.932	0.892	0.747	0.844	0.924	1.01	0.976	0.906	1.01	0.854	0.931	0.776	1.06	1.19	1.19
NCI-H647	0.116	0.165	0.181	0.142	0.177	0.244	0.338	0.158	0.17	0.2	0.434	0.571	0.481	0.362	0.398	1.04	1.13	1.03	1.13	1.14
Calu-6											0.984	1.05	0.878	0.814	0.78	1.04	1.09	1.2	1.06	1.06
LCLC-103H	0.983	0.957	0.74	0.93	1	0.47	0.487	0.457	0.512	0.49	0.524	0.622	0.58	0.606	0.528					
HCC-15	0.122	0.5	0.21	0.222	0.533	0.586	0.658	0.555	0.574	0.494	0.785	0.762	0.69	0.719	0.799	0.827	0.861	0.764	0.881	0.976
H3255	1.02	0.925	0.666	1.05	0.814	0.532	0.42	0.408	0.356	0.349	0.473	0.572		0.466	0.48	0.264	0.295	0.235	0.234	0.256
NCI-H1915	0.742	0.839	0.792	0.753	0.811	0.336	0.338	0.289	0.318	0.341	0.929	1.04	0.903	0.949	0.908	0.988	0.996	0.953	1.05	1.01
NCI-H1650	0.178	0.183	0.204	0.203	0.202	0.285	0.396	0.285	0.255	0.227	0.515	0.709	0.606	0.536	0.532	0.783	0.696	0.684	1.22	0.875
NCI-H661	0.911	0.875	0.875	0.938	0.891	0.799	1.09	0.904	0.847	0.758	0.301	0.476	0.391	0.394	0.331	0.6	0.423	0.399	0.639	0.559
NCI-H2126	0.93	0.909		0.935	0.952	0.57	0.557	0.522	0.446	0.475	0.442	0.52	0.465	0.544	0.547	0.75	0.753	0.639	0.755	0.733
PC-14	0.129		0.135	0.135	0.124	0.253	0.253	0.259	0.211	0.139	0.722	0.761		0.76	0.689	0.316	0.284	0.259	0.416	0.288
NCI-H522	1.08	1.19	1.23	0.965	1.28	0.83	0.977	0.914	0.874	0.952										
HCC-44	1.14	1.16	1.17	1.01	1.08						0.487	0.581	0.6	0.571	0.662	0.948	1.08	1.05	0.967	1.06
HCC-78						0.413	0.393	0.373	0.427	0.535	0.178	0.228	0.174	0.177	0.192	0.866	1.03		0.893	0.572
ChaGo-K-1	0.714	0.625	0.652	0.578	0.512	0.646	0.57	0.604	0.59	0.576	0.533	0.933	0.676	0.405	0.647					
NCI-H1703											0.214	0.229	0.249	0.226	0.18	1.17	1.27	0.96	1.45	1.16
EBC-1											0.29	0.193	0.169	0.166	0.107	0.215	0.234	0.206	0.198	0.226
IA-LM											0.471	0.381	0.356	0.39	0.412		0.713	0.802	1.01	0.881
